Laboratory results taken from US12180187B2, “1-phenyl-5-azinylpyrazolyl-3-oxyalkyl acids and their use for controlling unwanted plant growth” (BAYER AKTIENGESELLSCHAFT, priority 2019, dated 2024).

Key:
ALOMY [1] = experiment: Pre-emergence action against ALOMY, 1280 g/ha; type: in vivo, Alopecurus myosuroides; conditions: visual scoring after about 3 weeks vs untreated controls, 100% = plants have died, 0% = like control plants
Procedure, shortened: (§1)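 Mono- and dicot weed seeds sown in sandy loam were treated on the covering soil surface with WP or EC formulations plus 0.5% additive at 600 L water/ha. Pots stayed in a greenhouse; damage was scored visually after ~3 weeks as percent versus untreated controls (100% = dead).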

DIGSA [2] = experiment: Pre-emergence action against DIGSA, 1280 g/ha; type: in vivo, Digitaria sanguinalis; conditions: visual scoring after about 3 weeks vs untreated controls, 100% = plants have died, 0% = like control plants
Procedure, shortened: as §1

ECHCG [3] = experiment: Pre-emergence action against ECHCG, 1280 g/ha; type: in vivo, Echinochloa crus-galli; conditions: visual scoring after about 3 weeks vs untreated controls, 100% = plants have died, 0% = like control plants
Procedure, shortened: as §1

LOLRI [4] = experiment: Pre-emergence action against LOLRI, 1280 g/ha; type: in vivo, Lolium rigidum; conditions: visual scoring after about 3 weeks vs untreated controls, 100% = plants have died, 0% = like control plants
Procedure, shortened: as §1

POAAN [5] = experiment: Pre-emergence action against POAAN, 1280 g/ha; type: in vivo, Poa annua; conditions: visual scoring after about 3 weeks vs untreated controls, 100% = plants have died, 0% = like control plants
Procedure, shortened: as §1

SETVI [6] = experiment: Pre-emergence action against SETVI, 1280 g/ha; type: in vivo, Setaria viridis; conditions: visual scoring after about 3 weeks vs untreated controls, 100% = plants have died, 0% = like control plants
Procedure, shortened: as §1

AMARE [7] = experiment: Pre-emergence action against AMARE, 1280 g/ha; type: in vivo, Amaranthus retroflexus; conditions: scored visually after about 3 weeks vs untreated controls (100% = plants have died)
Procedure, shortened: as §1

MATIN [8] = experiment: Pre-emergence action against MATIN, 1280 g/ha; type: in vivo, Tripleurospermum inodorum (Matricaria inodora); conditions: scored visually after about 3 weeks vs untreated controls (100% = plants have died)
Procedure, shortened: as §1

STEME = experiment: Pre-emergence action against STEME, 1280 g/ha; type: in vivo, Stellaria media; conditions: scored visually after about 3 weeks vs untreated controls (100% = plants have died)
Procedure, shortened: as §1

VERPE [9] = experiment: Pre-emergence action against VERPE, 1280 g/ha; type: in vivo, Veronica persica; conditions: scored visually after about 3 weeks vs untreated controls (100% = plants have died)
Procedure, shortened: as §1

ALOMY [10] = experiment: Pre-emergence action at 320 g/ha against ALOMY; type: in vivo, Alopecurus myosuroides; conditions: scored visually after about 3 weeks vs untreated controls (100% = plants have died)
Procedure, shortened: (§2)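 Sow seeds, cover with soil, spray soil surface (WP/EC, 0.5% additive, 600 l/ha water), hold in greenhouse ~3 wk, then rate % activity visually against untreated controls.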

AVEFA = experiment: Pre-emergence action at 320 g/ha against AVEFA; type: in vivo; conditions: visual scoring after about 3 weeks vs untreated controls
Procedure, shortened: as §2

DIGSA [11] = experiment: Pre-emergence action at 320 g/ha against DIGSA; type: in vivo, Digitaria sanguinalis; conditions: visual scoring after about 3 weeks vs untreated controls
Procedure, shortened: as §2

ECHGC = experiment: Pre-emergence action at 320 g/ha against ECHGC; type: in vivo, Echinochloa crus-galli; conditions: visual scoring after about 3 weeks vs untreated controls
Procedure, shortened: as §2

LOLRI [12] = experiment: Pre-emergence action at 320 g/ha against LOLRI; type: in vivo, Lolium rigidum; conditions: visual scoring after about 3 weeks vs untreated controls
Procedure, shortened: as §2

SETVI [13] = experiment: Pre-emergence action at 320 g/ha against SETVI; type: in vivo, Setaria viridis; conditions: visual scoring after about 3 weeks vs untreated controls
Procedure, shortened: as §2

ABUTH [14] = experiment: Pre-emergence action at 320 g/ha against ABUTH; type: in vivo, Abutilon theophrasti; conditions: greenhouse, scored visually after about 3 weeks vs untreated controls, 100% = plants have died, 0% = like control plants
Description: b) Seeds of monocotyledonous and dicotyledonous weed plants and crop plants are placed in plastic or organic planting pots and covered with soil. The compounds of the invention, formulated in the form of wettable powders (WP) or as emulsion concentrates (EC), are then applied onto the surface of the covering soil as aqueous suspension or emulsion with addition of 0.5% additive at a water application rate of 600 l/ha (converted). After the treatment, the pots are placed in a greenhouse and kept under good growth conditions for the trial plants. After about 3 weeks, the effect of the preparations is scored visually in comparison with untreated controls as percentages. For example, 100% activity=the plants have died, 0% activity=like control plants. Tables 13 to 26 below show the effects of selected compounds of the general formula (I) on various harmful plants and at an application rate corresponding to 320 g/ha, which were obtained by the experimental procedure mentioned above.

AMARE [15] = experiment: Pre-emergence action at 320 g/ha against AMARE; type: in vivo, Amaranthus retroflexus; conditions: visual scoring after about 3 weeks vs untreated controls
Procedure, shortened: as §2

MATIN [16] = experiment: Pre-emergence action at 320 g/ha against MATIN; type: in vivo, Tripleurospermum inodorum (Matricaria inodora); conditions: visual scoring after about 3 weeks vs untreated controls
Procedure, shortened: as §2

POLCO = experiment: Pre-emergence action at 320 g/ha against POLCO; type: in vivo, Fallopia convolvulus (Polygonum convolvulus); conditions: visual scoring after about 3 weeks vs untreated controls
Procedure, shortened: as §2

VERPE [17] = experiment: Pre-emergence action at 320 g/ha against VERPE; type: in vivo, Veronica persica; conditions: visual scoring after about 3 weeks vs untreated controls
Procedure, shortened: as §2

VIOTR = experiment: Pre-emergence action at 320 g/ha against VIOTR; type: in vivo, Viola tricolor; conditions: dosage 320 g/ha
Procedure, shortened: as §2

ALOMY [18] = experiment: Post-emergence action against ALOMY, 1.28 kg/ha; type: in vivo, Alopecurus myosuroides; conditions: dosage 1280 g/ha, visual rating about 3 weeks after treatment vs untreated controls
Procedure, shortened: (§3)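 Percent activity was scored visually ~3 wk post-spray relative to untreated plants. Treatment was post-emergence at the one-leaf stage using WP/EC in water with 0.5% additive (600 L/ha).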

DIGSA [19] = experiment: Post-emergence action against DIGSA, 1.28 kg/ha; type: in vivo, Digitaria sanguinalis; conditions: dosage 1280 g/ha, visual rating about 3 weeks after treatment vs untreated controls
Procedure, shortened: as §3

ECHCG [20] = experiment: Post-emergence action against ECHCG, 1.28 kg/ha; type: in vivo, Echinochloa crus-galli; conditions: dosage 1280 g/ha, visual rating about 3 weeks after treatment vs untreated controls
Procedure, shortened: as §3

LOLRI [21] = experiment: Post-emergence action against LOLRI, 1.28 kg/ha; type: in vivo, Lolium rigidum; conditions: dosage 1280 g/ha, visual rating about 3 weeks after treatment vs untreated controls
Procedure, shortened: as §3

POAAN [22] = experiment: Post-emergence action against POAAN, 1.28 kg/ha; type: in vivo, Poa annua; conditions: dosage 1280 g/ha, visual rating about 3 weeks after treatment vs untreated controls
Procedure, shortened: as §3

ABUTH [23] = experiment: Post-emergence action against ABUTH, 1.28 kg/ha; type: in vivo, Abutilon theophrasti; conditions: dosage 1280 g/ha, visual rating about 3 weeks after treatment vs untreated controls (100% = plants died)
Procedure, shortened: as §3

AMARE [24] = experiment: Post-emergence action against AMARE, 1.28 kg/ha; type: in vivo, Amaranthus retroflexus; conditions: dosage 1280 g/ha, visual rating about 3 weeks after treatment vs untreated controls (100% = plants died)
Procedure, shortened: as §3

VERPE [25] = experiment: Post-emergence action against VERPE, 1.28 kg/ha; type: in vivo, Veronica persica; conditions: dosage 1280 g/ha, visual rating about 3 weeks after treatment vs untreated controls (100% = plants died)
Procedure, shortened: as §3

CON(C)C(=O)COc1nn(-c2ccccc2F)c(-c2ccc(F)nc2)c1Br [Example X-019]
80%: Pre-emergence action against AVEFA in % (AVEFA) | Pre-emergence action at 320 g/ha against ABUTH in % (ABUTH [14])
100%: Pre-emergence action against ALOMY (ALOMY [1]) | Pre-emergence action against DIGSA (DIGSA [2]) | Pre-emergence action against ECHCG (ECHCG [3]) | Pre-emergence action against LOLRI (LOLRI [4]) | Pre-emergence action against POAAN (POAAN [5]) | Pre-emergence action against SETVI (SETVI [6]) | Pre-emergence action against AMARE (AMARE [7]) | Pre-emergence action against MATIN (MATIN [8]) | Pre-emergence action at 320 g/ha against ALOMY in % (ALOMY [10]) | Pre-emergence action against DIGSA in % (DIGSA [11]) | Pre-emergence action against ECHGC in % (ECHGC) | Pre-emergence action against LOLRI in % (LOLRI [12]) | Pre-emergence action against SETVI in % (SETVI [13]) | Pre-emergence action against AMARE in % (AMARE [15]) | Pre-emergence action against MATIN in % (MATIN [16]) | Pre-emergence action against VERPE in % (VERPE [17]) | Pre-emergence action against VIOTR in % (VIOTR) | Post-emergence action against ALOMY (ALOMY [18]) | Post-emergence action against ECHCG (ECHCG [20]) | Post-emergence action against POAAN (POAAN [22])
90%: Pre-emergence action against STEME (STEME) | Pre-emergence action against VERPE (VERPE [9]) | Pre-emergence action against POLCO in % (POLCO) | Post-emergence action against DIGSA (DIGSA [19]) | Post-emergence action against LOLRI (LOLRI [21]) | Post-emergence action against ABUTH (ABUTH [23]) | Post-emergence action against AMARE (AMARE [24]) | Post-emergence action against VERPE (VERPE [25])
